In the kinase profiling compilation of Christmann-Franck et al. (2016):

Columns and labels:
Assay in all cases: KINOMEscan competition binding
Conditions in all cases: compound 10.0 µM
MAPK6 (human) = MAPK6 (human) (UniProt Q16659)
RPS6KB1 (human) = RPS6KB1 (human) (UniProt P23443)
PRKACA (human) = PRKACA (human) (UniProt P17612)
MARK1 (human) = MARK1 (human) (UniProt Q9P0L2)
NEK1 (human) = NEK1 (human) (UniProt Q96PY6)
MYO3A (human) = MYO3A (human) (UniProt Q8NEV4)
CAMK1D (human) = CAMK1D (human) (UniProt Q8IU85)
HIPK4 (human) = HIPK4 (human) (UniProt Q8NE63)
STK4 (human) = STK4 (human) (UniProt Q13043)
CDKL5 (human) = CDKL5 (human) (UniProt O76039)
PTK2B (human) = PTK2B (human) (UniProt Q14289)
PRKCQ (human) = PRKCQ (human) (UniProt Q04759)
ADCK3 (human) = ADCK3 (human) (UniProt Q8NI60)
ACVR1 (human) = ACVR1 (human) (UniProt Q04771)
AKT2 (human) = AKT2 (human) (UniProt P31751)
STK39 (human) = STK39 (human) (UniProt Q9UEW8)
STK32B (human) = STK32B (human) (UniProt Q9NY57)
RPS6KA5 KD2 (human) = RPS6KA5 KD2 (human) (UniProt O75582)
[1] = biological target: JAK1 JH1 catalytic (human) (UniProt P23458)
CLK3 (human) = CLK3 (human) (UniProt P49761)
WEE2 (human) = WEE2 (human) (UniProt P0C1S8)
MAP3K4 (human) = MAP3K4 (human) (UniProt Q9Y6R4)
PI4KB (human) = PI4KB (human) (UniProt Q9UBF8)
CDK4 CCND1 (human) = CDK4 CCND1 (human) (UniProt P11802+P24385)
MAP3K3 (human) = MAP3K3 (human) (UniProt Q99759)
RIOK3 (human) = RIOK3 (human) (UniProt O14730)
VRK2 (human) = VRK2 (human) (UniProt Q86Y07)
[2] = test system: KIT (human), P10721 [V559D/V654A]
RPS6KA6 KD2 (human) = RPS6KA6 KD2 (human) (UniProt Q9UK32)
GRK7 (human) = GRK7 (human) (UniProt Q8WTQ7)
PIM3 (human) = PIM3 (human) (UniProt Q86V86)
CDC42BPG (human) = CDC42BPG (human) (UniProt Q6DT37)
EPHA5 (human) = EPHA5 (human) (UniProt P54756)
[3] = biological target: JAK2 JH1 catalytic (human) (UniProt O60674)
MAPK1 (human) = MAPK1 (human) (UniProt P28482)
FGR (human) = FGR (human) (UniProt P09769)
CAMK2A (human) = CAMK2A (human) (UniProt Q9UQM7)
MYLK3 (human) = MYLK3 (human) (UniProt Q32MK0)
NTRK2 (human) = NTRK2 (human) (UniProt Q16620)
CDK4 CCND3 (human) = CDK4 CCND3 (human) (UniProt P11802+P30281)

CAMK2A (human), sequence (Q9UQM7 whole entry, looked up): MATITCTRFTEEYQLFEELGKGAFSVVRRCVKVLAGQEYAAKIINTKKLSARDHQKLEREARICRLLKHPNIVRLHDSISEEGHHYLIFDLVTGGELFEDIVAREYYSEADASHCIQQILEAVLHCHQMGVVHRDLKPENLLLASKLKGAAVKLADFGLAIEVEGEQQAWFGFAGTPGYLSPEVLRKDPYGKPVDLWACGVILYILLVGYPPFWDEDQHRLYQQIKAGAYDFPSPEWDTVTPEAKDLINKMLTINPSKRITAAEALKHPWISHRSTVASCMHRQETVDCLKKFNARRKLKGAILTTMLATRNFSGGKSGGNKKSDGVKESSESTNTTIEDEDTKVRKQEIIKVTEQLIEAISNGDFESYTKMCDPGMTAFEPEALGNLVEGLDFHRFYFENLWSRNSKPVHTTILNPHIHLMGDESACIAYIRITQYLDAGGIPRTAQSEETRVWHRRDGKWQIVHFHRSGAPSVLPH
MYLK3 (human), sequence (Q32MK0 whole entry, looked up): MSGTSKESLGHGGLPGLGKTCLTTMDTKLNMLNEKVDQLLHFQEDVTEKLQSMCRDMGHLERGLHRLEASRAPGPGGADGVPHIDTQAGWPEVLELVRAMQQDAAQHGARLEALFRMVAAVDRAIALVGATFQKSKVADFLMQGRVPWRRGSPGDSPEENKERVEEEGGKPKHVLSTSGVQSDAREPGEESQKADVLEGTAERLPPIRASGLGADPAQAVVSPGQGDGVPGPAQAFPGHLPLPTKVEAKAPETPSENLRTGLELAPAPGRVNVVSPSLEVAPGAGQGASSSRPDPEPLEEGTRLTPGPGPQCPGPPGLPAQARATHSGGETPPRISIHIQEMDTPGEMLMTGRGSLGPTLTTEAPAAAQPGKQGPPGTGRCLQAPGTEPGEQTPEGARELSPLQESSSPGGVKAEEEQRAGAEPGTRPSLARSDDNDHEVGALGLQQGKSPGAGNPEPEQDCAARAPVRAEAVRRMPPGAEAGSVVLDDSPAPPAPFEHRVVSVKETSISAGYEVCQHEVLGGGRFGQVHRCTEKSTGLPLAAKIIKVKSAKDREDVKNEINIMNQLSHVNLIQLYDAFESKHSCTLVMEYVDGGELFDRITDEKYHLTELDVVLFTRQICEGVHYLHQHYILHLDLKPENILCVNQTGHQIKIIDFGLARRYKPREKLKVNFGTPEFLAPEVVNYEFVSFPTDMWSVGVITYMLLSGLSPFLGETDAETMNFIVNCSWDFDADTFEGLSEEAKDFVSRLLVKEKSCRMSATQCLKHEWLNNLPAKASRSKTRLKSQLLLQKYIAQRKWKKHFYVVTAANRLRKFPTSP
JAK2 JH1 catalytic (human), sequence (O60674 whole entry, looked up): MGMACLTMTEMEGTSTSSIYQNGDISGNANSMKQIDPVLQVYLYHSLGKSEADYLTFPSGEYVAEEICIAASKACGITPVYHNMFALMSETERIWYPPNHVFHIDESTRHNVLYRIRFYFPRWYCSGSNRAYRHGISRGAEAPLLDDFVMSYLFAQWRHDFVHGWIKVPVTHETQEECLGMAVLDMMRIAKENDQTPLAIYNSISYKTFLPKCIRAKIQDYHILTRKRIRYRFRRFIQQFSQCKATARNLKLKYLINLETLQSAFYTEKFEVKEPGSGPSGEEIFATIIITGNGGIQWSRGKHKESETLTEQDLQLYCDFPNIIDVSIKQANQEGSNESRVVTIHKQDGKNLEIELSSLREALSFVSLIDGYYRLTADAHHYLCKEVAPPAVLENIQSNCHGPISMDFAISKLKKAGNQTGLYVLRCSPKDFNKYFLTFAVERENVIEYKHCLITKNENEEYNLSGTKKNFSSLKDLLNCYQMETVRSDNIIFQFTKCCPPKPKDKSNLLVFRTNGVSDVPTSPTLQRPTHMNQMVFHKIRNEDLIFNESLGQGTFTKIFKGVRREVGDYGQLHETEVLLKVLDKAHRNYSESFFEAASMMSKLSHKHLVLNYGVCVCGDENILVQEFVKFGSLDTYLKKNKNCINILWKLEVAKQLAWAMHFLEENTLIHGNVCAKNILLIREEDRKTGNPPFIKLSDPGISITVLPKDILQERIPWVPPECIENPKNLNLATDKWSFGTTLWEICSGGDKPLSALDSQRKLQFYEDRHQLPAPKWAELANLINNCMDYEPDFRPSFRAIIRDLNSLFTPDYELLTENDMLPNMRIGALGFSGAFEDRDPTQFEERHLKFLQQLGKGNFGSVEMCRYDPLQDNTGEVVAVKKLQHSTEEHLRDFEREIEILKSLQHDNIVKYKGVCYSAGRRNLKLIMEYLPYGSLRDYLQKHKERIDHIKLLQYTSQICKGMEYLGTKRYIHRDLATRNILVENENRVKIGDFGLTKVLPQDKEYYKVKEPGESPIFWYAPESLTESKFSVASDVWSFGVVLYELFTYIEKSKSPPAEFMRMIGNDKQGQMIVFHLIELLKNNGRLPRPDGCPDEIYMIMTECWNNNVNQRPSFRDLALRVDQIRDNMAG
MAP3K3 (human), sequence (Q99759 whole entry, looked up): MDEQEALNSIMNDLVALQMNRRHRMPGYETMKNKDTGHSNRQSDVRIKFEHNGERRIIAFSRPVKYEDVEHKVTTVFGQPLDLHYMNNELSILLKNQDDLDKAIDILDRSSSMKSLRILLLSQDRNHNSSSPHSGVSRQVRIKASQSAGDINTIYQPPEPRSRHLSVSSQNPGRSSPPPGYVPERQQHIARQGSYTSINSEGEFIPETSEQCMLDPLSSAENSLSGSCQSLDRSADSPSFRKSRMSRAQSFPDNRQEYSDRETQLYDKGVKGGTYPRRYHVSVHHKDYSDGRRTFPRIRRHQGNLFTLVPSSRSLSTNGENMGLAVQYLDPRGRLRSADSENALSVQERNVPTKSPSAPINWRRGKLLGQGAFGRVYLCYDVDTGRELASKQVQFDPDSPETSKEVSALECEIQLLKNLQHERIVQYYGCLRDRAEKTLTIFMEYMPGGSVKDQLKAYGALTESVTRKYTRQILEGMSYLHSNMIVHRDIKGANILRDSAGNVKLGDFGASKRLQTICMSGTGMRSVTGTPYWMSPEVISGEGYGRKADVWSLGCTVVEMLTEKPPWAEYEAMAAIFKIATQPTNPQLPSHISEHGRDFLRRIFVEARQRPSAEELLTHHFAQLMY
VRK2 (human), sequence (Q86Y07 whole entry, looked up): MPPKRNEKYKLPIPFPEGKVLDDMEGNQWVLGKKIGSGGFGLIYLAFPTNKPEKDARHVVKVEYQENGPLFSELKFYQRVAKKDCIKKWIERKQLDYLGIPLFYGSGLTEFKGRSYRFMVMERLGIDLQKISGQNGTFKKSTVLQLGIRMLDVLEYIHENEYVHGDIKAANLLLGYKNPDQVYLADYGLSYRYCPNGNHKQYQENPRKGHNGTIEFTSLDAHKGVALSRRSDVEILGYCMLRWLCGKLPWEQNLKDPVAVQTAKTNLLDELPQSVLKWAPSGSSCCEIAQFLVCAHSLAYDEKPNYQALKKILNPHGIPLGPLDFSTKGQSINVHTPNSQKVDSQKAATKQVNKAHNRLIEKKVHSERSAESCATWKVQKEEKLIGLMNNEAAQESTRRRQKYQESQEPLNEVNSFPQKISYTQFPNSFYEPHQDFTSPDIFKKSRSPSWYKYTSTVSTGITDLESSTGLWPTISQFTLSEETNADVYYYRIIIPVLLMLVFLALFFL
FGR (human), sequence (P09769 whole entry, looked up): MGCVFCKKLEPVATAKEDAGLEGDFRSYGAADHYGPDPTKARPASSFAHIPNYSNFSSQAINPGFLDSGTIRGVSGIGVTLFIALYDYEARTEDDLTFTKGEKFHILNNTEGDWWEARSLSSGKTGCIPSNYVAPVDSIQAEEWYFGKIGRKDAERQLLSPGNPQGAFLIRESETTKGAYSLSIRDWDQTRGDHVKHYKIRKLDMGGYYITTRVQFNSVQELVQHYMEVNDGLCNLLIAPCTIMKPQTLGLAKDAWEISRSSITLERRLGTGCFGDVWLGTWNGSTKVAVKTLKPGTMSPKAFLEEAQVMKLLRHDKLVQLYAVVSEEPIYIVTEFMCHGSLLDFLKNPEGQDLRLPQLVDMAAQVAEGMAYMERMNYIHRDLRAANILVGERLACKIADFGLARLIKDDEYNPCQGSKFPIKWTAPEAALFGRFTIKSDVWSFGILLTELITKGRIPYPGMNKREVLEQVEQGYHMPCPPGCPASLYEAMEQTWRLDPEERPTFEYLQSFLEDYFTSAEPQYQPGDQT
GRK7 (human), sequence (Q8WTQ7 whole entry, looked up): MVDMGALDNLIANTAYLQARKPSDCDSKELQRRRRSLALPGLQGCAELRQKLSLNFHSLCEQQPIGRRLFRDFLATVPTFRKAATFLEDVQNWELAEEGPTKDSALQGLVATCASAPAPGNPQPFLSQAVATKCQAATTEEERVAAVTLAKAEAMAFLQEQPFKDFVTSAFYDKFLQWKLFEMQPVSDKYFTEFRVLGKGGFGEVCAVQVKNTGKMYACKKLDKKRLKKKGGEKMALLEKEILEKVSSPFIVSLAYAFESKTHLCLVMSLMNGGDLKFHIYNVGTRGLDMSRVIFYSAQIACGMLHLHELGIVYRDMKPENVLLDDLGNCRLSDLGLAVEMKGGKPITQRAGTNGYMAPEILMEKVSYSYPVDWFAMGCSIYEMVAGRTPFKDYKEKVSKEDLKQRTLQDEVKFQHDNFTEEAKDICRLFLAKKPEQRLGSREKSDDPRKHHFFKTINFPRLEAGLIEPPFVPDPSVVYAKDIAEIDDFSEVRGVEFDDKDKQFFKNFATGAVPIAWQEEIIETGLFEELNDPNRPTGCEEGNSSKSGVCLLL

Structure (SMILES): C=CC(=O)Nc1cc(-n2c(=O)ccc3cnc4ccc(-c5cn[nH]c5)cc4c32)ccc1C
- kinase still bound, per cent of control (MAPK6 (human)): 95%
- kinase still bound, per cent of control (RPS6KB1 (human)): 63%
- kinase still bound, per cent of control (PRKACA (human)): 100%
- kinase still bound, per cent of control (MARK1 (human)): 78%
- kinase still bound, per cent of control (NEK1 (human)): 93%
- kinase still bound, per cent of control (MYO3A (human)): 94%
- kinase still bound, per cent of control (CAMK1D (human)): 86%
- kinase still bound, per cent of control (HIPK4 (human)): 51%
- kinase still bound, per cent of control (STK4 (human)): 83%
- kinase still bound, per cent of control (CDKL5 (human)): 3.3%
- kinase still bound, per cent of control (PTK2B (human)): 96%
- kinase still bound, per cent of control (PRKCQ (human)): 100%
- kinase still bound, per cent of control (ADCK3 (human)): 91%
- kinase still bound, per cent of control (ACVR1 (human)): 29%
- kinase still bound, per cent of control (AKT2 (human)): 87%
- kinase still bound, per cent of control (STK39 (human)): 64%
- kinase still bound, per cent of control (STK32B (human)): 100%
- kinase still bound, per cent of control (RPS6KA5 KD2 (human)): 75%
- kinase still bound, per cent of control [1]: 97%
- kinase still bound, per cent of control (CLK3 (human)): 46%
- kinase still bound, per cent of control (WEE2 (human)): 95%
- kinase still bound, per cent of control (MAP3K4 (human)): 100%
- kinase still bound, per cent of control (PI4KB (human)): 2.3%
- kinase still bound, per cent of control (CDK4 CCND1 (human)): 100%
- kinase still bound, per cent of control (MAP3K3 (human)): 91%
- kinase still bound, per cent of control (RIOK3 (human)): 31%
- kinase still bound, per cent of control (VRK2 (human)): 88%
- kinase still bound, per cent of control [2]: 100%
- kinase still bound, per cent of control (RPS6KA6 KD2 (human)): 67%
- kinase still bound, per cent of control (GRK7 (human)): 52%
- kinase still bound, per cent of control (PIM3 (human)): 42%
- kinase still bound, per cent of control (CDC42BPG (human)): 100%
- kinase still bound, per cent of control (EPHA5 (human)): 100%
- kinase still bound, per cent of control [3]: 16%
- kinase still bound, per cent of control (MAPK1 (human)): 100%
- kinase still bound, per cent of control (FGR (human)): 57%
- kinase still bound, per cent of control (CAMK2A (human)): 21%
- kinase still bound, per cent of control (MYLK3 (human)): 100%
- kinase still bound, per cent of control (NTRK2 (human)): 51%
- kinase still bound, per cent of control (CDK4 CCND3 (human)): 87%

Structure (SMILES): NC(=O)Nc1cc(-c2cccc(F)c2)sc1C(=O)N[C@@H]1CCCNC1
- kinase still bound, per cent of control (MAPK6 (human)): 54%
- kinase still bound, per cent of control (RPS6KB1 (human)): 6.4%
- kinase still bound, per cent of control (PRKACA (human)): 1.4%
- kinase still bound, per cent of control (MARK1 (human)): 2.6%
- kinase still bound, per cent of control (NEK1 (human)): 24%
- kinase still bound, per cent of control (MYO3A (human)): 4.2%
- kinase still bound, per cent of control (CAMK1D (human)): 0.2%
- kinase still bound, per cent of control (HIPK4 (human)): 38%
- kinase still bound, per cent of control (STK4 (human)): 0.4%
- kinase still bound, per cent of control (CDKL5 (human)): 100%
- kinase still bound, per cent of control (PTK2B (human)): 0.6%
- kinase still bound, per cent of control (PRKCQ (human)): 0%
- kinase still bound, per cent of control (ADCK3 (human)): 93%
- kinase still bound, per cent of control (ACVR1 (human)): 4%
- kinase still bound, per cent of control (AKT2 (human)): 60%
- kinase still bound, per cent of control (STK39 (human)): 4.4%
- kinase still bound, per cent of control (STK32B (human)): 1%
- kinase still bound, per cent of control (RPS6KA5 KD2 (human)): 9%
- kinase still bound, per cent of control [1]: 17%
- kinase still bound, per cent of control (CLK3 (human)): 62%
- kinase still bound, per cent of control (WEE2 (human)): 91%
- kinase still bound, per cent of control (MAP3K4 (human)): 42%
- kinase still bound, per cent of control (PI4KB (human)): 100%
- kinase still bound, per cent of control (CDK4 CCND1 (human)): 75%
- kinase still bound, per cent of control (MAP3K3 (human)): 0%
- kinase still bound, per cent of control (RIOK3 (human)): 0.4%
- kinase still bound, per cent of control (VRK2 (human)): 92%
- kinase still bound, per cent of control (RPS6KA6 KD2 (human)): 1.2%
- kinase still bound, per cent of control (GRK7 (human)): 0.15%
- kinase still bound, per cent of control (PIM3 (human)): 15%
- kinase still bound, per cent of control (CDC42BPG (human)): 72%
- kinase still bound, per cent of control (EPHA5 (human)): 4.8%
- kinase still bound, per cent of control [3]: 0%
- kinase still bound, per cent of control (MAPK1 (human)): 65%
- kinase still bound, per cent of control (FGR (human)): 0.2%
- kinase still bound, per cent of control (CAMK2A (human)): 3.6%
- kinase still bound, per cent of control (MYLK3 (human)): 10%
- kinase still bound, per cent of control (NTRK2 (human)): 0.35%
- kinase still bound, per cent of control (CDK4 CCND3 (human)): 92%
